Legend:
[1] = tested on: luciferase reporter construct containing a UGA premature termination codon; test: cell-based luciferase reporter assay (nonsense suppression); settings: 293T Human Embryonic Kidney cells stably transfected with UGA luciferase reporter; internal standard
From the text: (§1) Two assays were developed for use in high throughput screens to identify small molecules that promote nonsense suppression. Each assay utilized luciferase because it is a functional reporter gene assay (light is only produced if the protein is functional) and it is extremely sensitive (Light intensity is proportional to luciferase concentration in the nM range). The first assay is a cell-based luciferase reporter assay and the second is a biochemical assay consisting of rabbit reticulocyte lysate and a nonsense-containing luciferase reporter mRNA. In the cell-based assay, a luciferase reporter construct containing a UGA premature termination codon was stably transfected in 293T Human Embryonic Kidney cells. In the biochemical assay, mRNA containing a UGA premature termination codon was used as a reporter in an in vitro translation reaction using rabbit reticulocyte lysate supplemented with tRNA, hemin, creatine kinase, amino acids, KOAc, Mg(OAc)2, and creatine phosphate. […] Synthetic mRNA was prepared in vitro using the T7 promoter and the MegaScript in vitro transcription kit (Ambion).

[2] = tested on: mRNA containing a UGA premature termination codon; test: biochemical in vitro translation assay, rabbit reticulocyte lysate with nonsense-containing luciferase reporter mRNA; settings: in vitro translation reaction using rabbit reticulocyte lysate, internal standard
From the text: as §1

luciferase activity [2]: increased luciferase activity
SMILES: CC(C)c1ccc(N2CC(=O)N(c3cccc(C(=O)O)c3)C2=O)cc1 [3-[3-(4-Isopropyl-phenyl)-2,5-dioxo-imidazolidin-1-yl]-benzoic acid]
luciferase activity [1]: increased luciferase activity

Reference: patent US8691511B2, “Hydroxylated 1,2,4-oxadiazole benzoic acid compounds, compositions thereof and their use in bioassays” (PTC Therapeutics, Inc., priority 2006, dated 2014)
